Test results as given in ChEMBL document CHEMBL1139699, “Solid-phase synthesis and antibacterial activity of hydroxycinnamic acid amides and analogues against methicillin-resistant Staphylococcus aureus and vancomycin-resistant S. aureus” (Bioorg Med Chem Lett, 2006).
≈ marks a conversion by molar mass, not a printed value. Calls of active or inactive are those of the source. No cut-off for these calls is given here.

What was measured:
[1] = tested on: Staphylococcus aureus; assay: Antibacterial activity against methicillin-resistant Staphylococcus aureus 20630; format: functional
[2] = tested on: Staphylococcus aureus; assay: Antibacterial activity against methicillin-resistant Staphylococcus aureus 20631; format: functional
[3] = tested on: Staphylococcus aureus; assay: Antibacterial activity against methicillin-resistant Staphylococcus aureus 20632; format: functional
[4] = tested on: Staphylococcus aureus; assay: Antibacterial activity against methicillin-resistant Staphylococcus aureus 20635; format: functional
[5] = tested on: Staphylococcus aureus; assay: Antibacterial activity against methicillin-resistant Staphylococcus aureus 20636; format: functional
[6] = tested on: Staphylococcus aureus; assay: Antibacterial activity against methicillin-resistant Staphylococcus aureus 20654; format: functional
[7] = tested on: Staphylococcus aureus; assay: Antibacterial activity against vancomycin-resistant Staphylococcus aureus 20622 at 256 ug/ml; format: functional, organism-based
[8] = tested on: Staphylococcus aureus; assay: Antibacterial activity against vancomycin-resistant Staphylococcus aureus 20623 at 256 ug/ml; format: functional, organism-based
[9] = tested on: Staphylococcus aureus; assay: Antibacterial activity against vancomycin-resistant Staphylococcus aureus 20624 at 256 ug/ml; format: functional, organism-based
[10] = tested on: Staphylococcus aureus; assay: Antibacterial activity against vancomycin-resistant Staphylococcus aureus 21083 at 256 ug/ml; format: functional, organism-based
[11] = tested on: Staphylococcus aureus; assay: microbe, parasite or virus in culture; conditions: 20652
[12] = tested on: Staphylococcus aureus; assay: Antibacterial activity against vancomycin-resistant Staphylococcus aureus 20623; format: functional
[13] = tested on: Staphylococcus aureus; assay: Antibacterial activity against vancomycin-resistant Staphylococcus aureus 20624; format: functional
[14] = tested on: Staphylococcus aureus; assay: Antibacterial activity against vancomycin-resistant Staphylococcus aureus 21083; format: functional
[15] = tested on: Staphylococcus aureus; assay: Antibacterial activity against methicillin-resistant Staphylococcus aureus 20652 at 50 ug/ml; format: functional, organism-based
[16] = Cytotoxicity against human gingival cells; format: cell-based
[17] = tested on: Staphylococcus aureus; assay: Antibacterial activity against methicillin-resistant Staphylococcus aureus; format: functional
[18] = tested on: Staphylococcus aureus; assay: Antibacterial activity against methicillin-resistant Staphylococcus aureus 20628; format: functional
[19] = tested on: Staphylococcus aureus; assay: Antibacterial activity against methicillin-resistant Staphylococcus aureus 20633; format: functional
[20] = tested on: Staphylococcus aureus; assay: Antibacterial activity against methicillin-resistant Staphylococcus aureus 20653; format: functional
[21] = tested on: Staphylococcus aureus; assay: Antibacterial activity against vancomycin-resistant Staphylococcus aureus 20622; format: functional
[22] = tested on: Staphylococcus aureus; assay: Antibacterial activity against methicillin-resistant Staphylococcus aureus 20652 at 100 ug/ml; format: functional, organism-based
[23] = tested on: Staphylococcus aureus; assay: Antibacterial activity against methicillin-resistant Staphylococcus aureus at 256 ug/ml; format: functional, organism-based
[24] = tested on: Staphylococcus aureus; assay: Antibacterial activity against methicillin-resistant Staphylococcus aureus 20628 at 256 ug/ml; format: functional, organism-based
[25] = tested on: Staphylococcus aureus; assay: Antibacterial activity against methicillin-resistant Staphylococcus aureus 20630 at 256 ug/ml; format: functional, organism-based
[26] = tested on: Staphylococcus aureus; assay: Antibacterial activity against methicillin-resistant Staphylococcus aureus 20631 at 256 ug/ml; format: functional, organism-based
[27] = tested on: Staphylococcus aureus; assay: Antibacterial activity against methicillin-resistant Staphylococcus aureus 20632 at 256 ug/ml; format: functional, organism-based
[28] = tested on: Staphylococcus aureus; assay: Antibacterial activity against methicillin-resistant Staphylococcus aureus 20633 at 256 ug/ml; format: functional, organism-based
[29] = tested on: Staphylococcus aureus; assay: Antibacterial activity against methicillin-resistant Staphylococcus aureus 20635 at 256 ug/ml; format: functional, organism-based
[30] = tested on: Staphylococcus aureus; assay: Antibacterial activity against methicillin-resistant Staphylococcus aureus 20636 at 256 ug/ml; format: functional, organism-based
[31] = tested on: Staphylococcus aureus; assay: Antibacterial activity against methicillin-resistant Staphylococcus aureus 20652 at 256 ug/ml; format: functional, organism-based
[32] = tested on: Staphylococcus aureus; assay: Antibacterial activity against methicillin-resistant Staphylococcus aureus 20653 at 256 ug/ml; format: functional, organism-based
[33] = tested on: Staphylococcus aureus; assay: Antibacterial activity against methicillin-resistant Staphylococcus aureus 20654 at 256 ug/ml; format: functional, organism-based
[34] = tested on: Staphylococcus aureus; assay: Antibacterial activity against methicillin-resistant Staphylococcus aureus 20628 at 25 ug/ml; format: functional, organism-based
[35] = tested on: Staphylococcus aureus; assay: Antibacterial activity against methicillin-resistant Staphylococcus aureus 20633 at 25 ug/ml; format: functional, organism-based
[36] = tested on: Staphylococcus aureus; assay: Antibacterial activity against methicillin-resistant Staphylococcus aureus 20636 at 25 ug/ml; format: functional, organism-based
[37] = tested on: Staphylococcus aureus; assay: Antibacterial activity against methicillin-resistant Staphylococcus aureus 20652 at 25 ug/ml; format: functional, organism-based
[38] = tested on: Staphylococcus aureus; assay: Antibacterial activity against methicillin-resistant Staphylococcus aureus 20653 at 25 ug/ml; format: functional, organism-based
[39] = tested on: Staphylococcus aureus; assay: Antibacterial activity against methicillin-resistant Staphylococcus aureus 20654 at 25 ug/ml; format: functional, organism-based

Row | Compound | MIC [1] | MIC [2] | MIC [3] | MIC [4] | MIC [5] | MIC [6] | Activity [7] | Activity [8] | Activity [9] | Activity [10] | MIC [12] | MIC [13] | MIC [14] | Activity [15] | IC50 [16] | MIC [17] | MIC [18] | MIC [19] | MIC [20] | MIC [21] | also measured
1 | CN[C@H](CC(C)C)C(=O)N[C@H]1C(=O)N[C@@H](CC(N)=O)C(=O)N[C@H]2C(=O)N[C@H]3C(=O)N[C@H](C(=O)N[C@H](C(=O)O)c4cc(O)cc(O)c4-c4cc3ccc4O)[C@H](O)c3ccc(c(Cl)c3)Oc3cc2cc(c3O[C@@H]2O[C@H](CO)[C@@H](O)[C@H](O)[C@H]2O[C@H]2C[C@](C)(N)[C@H](O)[C@H](C)O2)Oc2ccc(cc2Cl)[C@H]1O [VANCOMYCIN] | 1.5 µg/mL (≈ 1.04 µM) | 48 µg/mL (≈ 33.1 µM) | 3 µg/mL (≈ 2.07 µM) | 8 µg/mL (≈ 5.52 µM) | 1.5 µg/mL (≈ 1.04 µM) | 1.5 µg/mL (≈ 1.04 µM) | inactive | inactive | inactive | inactive |  |  |  |  |  |  |  |  |  |  | MIC [11]: 0.25 µg/mL (≈ 0.173 µM)
2 | NCCCCNC(=O)CCc1ccc(O)c(O)c1 | 50 µg/mL (≈ 198 µM) | 25 µg/mL (≈ 99.1 µM) | 25 µg/mL (≈ 99.1 µM) | 12.5 µg/mL (≈ 49.5 µM) | 25 µg/mL (≈ 99.1 µM) | 25 µg/mL (≈ 99.1 µM) |  |  |  |  | 25 µg/mL (≈ 99.1 µM) | 25 µg/mL (≈ 99.1 µM) | 25 µg/mL (≈ 99.1 µM) | inactive | > 100 µg/mL | 25 µg/mL (≈ 99.1 µM) | 50 µg/mL (≈ 198 µM) | 25 µg/mL (≈ 99.1 µM) | 25 µg/mL (≈ 99.1 µM) | 100 µg/mL (≈ 396 µM) | 
3 | NCCCCCCNC(=O)/C=C/c1ccc(O)c(O)c1 | 50 µg/mL (≈ 180 µM) | 50 µg/mL (≈ 180 µM) | 50 µg/mL (≈ 180 µM) | 25 µg/mL (≈ 89.8 µM) | 50 µg/mL (≈ 180 µM) | 25 µg/mL (≈ 89.8 µM) |  |  |  |  | 50 µg/mL (≈ 180 µM) | 50 µg/mL (≈ 180 µM) | 25 µg/mL (≈ 89.8 µM) |  | > 100 µg/mL | 100 µg/mL (≈ 359 µM) | 50 µg/mL (≈ 180 µM) | 50 µg/mL (≈ 180 µM) | 25 µg/mL (≈ 89.8 µM) | 100 µg/mL (≈ 359 µM) | Activity [22]: inactive
4 | Cc1onc(-c2ccccc2)c1C(=O)N[C@@H]1C(=O)N2[C@@H]1SC(C)(C)[C@@H]2C(=O)O |  |  |  |  |  |  | inactive | inactive | inactive | inactive |  |  |  |  |  |  |  |  |  |  | Activity [23]: inactive; Activity [24]: inactive; Activity [25]: inactive; Activity [26]: inactive; Activity [27]: inactive; Activity [28]: inactive; Activity [29]: inactive; Activity [30]: inactive; Activity [31]: inactive; Activity [32]: inactive; Activity [33]: inactive
5 | NCCCNC(=O)CCc1ccc(O)c(O)c1 | 50 µg/mL (≈ 210 µM) | 50 µg/mL (≈ 210 µM) | 50 µg/mL (≈ 210 µM) | 25 µg/mL (≈ 105 µM) | 25 µg/mL (≈ 105 µM) | 50 µg/mL (≈ 210 µM) |  |  |  |  | 50 µg/mL (≈ 210 µM) | 50 µg/mL (≈ 210 µM) | 25 µg/mL (≈ 105 µM) | inactive | > 100 µg/mL | 50 µg/mL (≈ 210 µM) | 50 µg/mL (≈ 210 µM) | 50 µg/mL (≈ 210 µM) | 25 µg/mL (≈ 105 µM) | 100 µg/mL (≈ 420 µM) | 
6 | NCCCCCNC(=O)CCc1ccc(O)c(O)c1 | 50 µg/mL (≈ 188 µM) | 50 µg/mL (≈ 188 µM) | 50 µg/mL (≈ 188 µM) | 25 µg/mL (≈ 93.9 µM) |  |  |  |  |  |  | 25 µg/mL (≈ 93.9 µM) | 50 µg/mL (≈ 188 µM) | 25 µg/mL (≈ 93.9 µM) |  | > 100 µg/mL | 50 µg/mL (≈ 188 µM) |  |  |  | 50 µg/mL (≈ 188 µM) | Activity [34]: inactive; Activity [35]: inactive; Activity [36]: inactive; Activity [37]: inactive; Activity [38]: inactive; Activity [39]: inactive
